Measured values from patent US4134792A, “Specific binding assay with an enzyme modulator as a labeling substance” (Miles Laboratories, Inc., priority 1976, dated 1979).
Read-outs that look alike come from different tables or passages of the source. Each block holds one compound with its values, some of them ahead of it.

How the values were obtained:
glutamate dehydrogenase = test system: glutamate dehydrogenase; parameters: key: inhibitory or negative effectors are indicated by (-); stimulatory or positive effectors are indicated by (+); conditions: beef liver; cited from earlier work
deoxythymidine kinase = test system: deoxythymidine kinase; parameters: key: inhibitory or negative effectors are indicated by (-); stimulatory or positive effectors are indicated by (+); conditions: E. coli; cited from earlier work
lysine aspartokinase = test system: lysine aspartokinase; parameters: key: inhibitory or negative effectors are indicated by (-); stimulatory or positive effectors are indicated by (+); conditions: E. coli; cited from earlier work
carbonic anhydrase [1] = test: Competitive binding assay for dinitrophenyl (DNP) derivatives; carbonic anhydrase esterase readout (Example 5); assay type: biochemical, human; conditions: for effect on the carbonic anhydrase reaction (in words): Table 4; for effect of antibody to DNP on inhibition (in words): presence of antibody to DNP
Method: (§1) Further dilutions were with water.
as §1
(4) Antibody to Dinitrophenyl (DNP) Reagent - Antisera raised against DNP was chromatographed at 4° C. on a 5 × 70 cm column of Sephadex G-200 (Pharmacia AB, Uppsala, Sweden) with 0.1 M Tris-HCl buffer, pH 8.2, containing 1 M sodium chloride.

acetylcholinesterase = conditions: cited from earlier work; for inhibition of acetylcholinesterase (in words): effective analogs of listed inhibitors
homoserine dehydrogenase [2] = test system: homoserine dehydrogenase; parameters: key: inhibitory or negative effectors are indicated by (-); stimulatory or positive effectors are indicated by (+); conditions: R. rubrum; cited from earlier work
[3] = test system: UDP-N-acetyl-glucosamine-2-epimerase; parameters: key: inhibitory or negative effectors are indicated by (-); stimulatory or positive effectors are indicated by (+); conditions: rat liver; cited from earlier work
carbonic anhydrase [4] = test: Esterase activities of carbonic anhydrase as a function of acetazolamide concentration (Example 2); assay type: biochemical, human; conditions: for Hydrolysis Rate: pH 7.4, enzyme 0.013 IU
uricase = conditions: approximation; competitive inhibitor; read-out: inhibitor constant (Ki); cited from earlier work
homoserine dehydrogenase [5] = test system: homoserine dehydrogenase; parameters: key: inhibitory or negative effectors are indicated by (-); stimulatory or positive effectors are indicated by (+); conditions: E. coli; cited from earlier work
threonine aspartokinase = test system: threonine aspartokinase; parameters: key: inhibitory or negative effectors are indicated by (-); stimulatory or positive effectors are indicated by (+); conditions: E. coli; cited from earlier work
[6] = test system: nicotinamide adenine dinucleotide (NAD)-isocitric dehydrogenase; parameters: key: inhibitory or negative effectors are indicated by (-); stimulatory or positive effectors are indicated by (+); conditions: N. crassa; cited from earlier work
L-threonine deaminase = test system: L-threonine deaminase; parameters: key: inhibitory or negative effectors are indicated by (-); stimulatory or positive effectors are indicated by (+); conditions: C. tetanomorphum; cited from earlier work
[7] = test system: fructose-1,6-diphosphatase; parameters: key: inhibitory or negative effectors are indicated by (-); stimulatory or positive effectors are indicated by (+); conditions: frog muscle and rat liver; cited from earlier work
[8] = test system: NAD-isocitric dehydrogenase; parameters: key: inhibitory or negative effectors are indicated by (-); stimulatory or positive effectors are indicated by (+); conditions: yeast; cited from earlier work
phosphorylase b = test system: phosphorylase b; parameters: key: inhibitory or negative effectors are indicated by (-); stimulatory or positive effectors are indicated by (+); conditions: rabbit muscle; cited from earlier work
[9] = test system: deoxycytidylate aminohydrolase; parameters: key: inhibitory or negative effectors are indicated by (-); stimulatory or positive effectors are indicated by (+); conditions: ass spleen; cited from earlier work
[10] = test system: aspartate transcarbamylase; parameters: key: inhibitory or negative effectors are indicated by (-); stimulatory or positive effectors are indicated by (+); conditions: E. coli; cited from earlier work
phosphofructokinase = conditions: guinea pig heart; cited from earlier work
[11] = test system: L-glutamine-D-fructose-6-phosphate transaminase; parameters: key: inhibitory or negative effectors are indicated by (-); stimulatory or positive effectors are indicated by (+); conditions: rat liver; cited from earlier work
[12] = test system: biosynthetic L-threonine deaminase; parameters: key: inhibitory or negative effectors are indicated by (-); stimulatory or positive effectors are indicated by (+); conditions: E. coli K12 and yeast; cited from earlier work
carbonic anhydrase [13] = test: Direct binding assay for avidin; competitive binding assay for biotin; carbonic anhydrase esterase readout (Example 4); assay type: biochemical, human
From the text: as §1
The results of reaction mixtures 2 through 9 are presented in graphical form in FIG. 2 of the drawing.

acetolactate synthetase = test system: acetolactate synthetase; parameters: key: inhibitory or negative effectors are indicated by (-); stimulatory or positive effectors are indicated by (+); conditions: E. coli; cited from earlier work

Compound: CSCC[C@H](N)C(=O)O [methionine]
allosteric effector: inhibitory (-) or stimulatory (+) (glutamate dehydrogenase): +

Compound: Nc1ccn([C@H]2C[C@H](O)[C@@H](COP(=O)(O)OP(=O)(O)O)O2)c(=O)n1 [dCDP, deoxycytosine diphosphate]
allosteric effector: inhibitory (-) or stimulatory (+) (deoxythymidine kinase): +

Compound: NCCCC[C@H](N)C(=O)O [L-lysine]
allosteric effector: inhibitory (-) or stimulatory (+) (lysine aspartokinase): -

Compound: O=C(O)CCCCCNc1ccc([N+](=O)[O-])cc1[N+](=O)[O-] [N-DNP-6-aminocaproate]
Rate of Hydrolysis (carbonic anhydrase [1]; N-DNP-6-aminocaproate 1.8 μM alone, no antibody, mixture 6): 0.154 Increase in Absorbance per min at 348 nm
effect on the carbonic anhydrase reaction (in words) (carbonic anhydrase [1]): no substantial effect on the carbonic anhydrase reaction
effect of DNP derivative on inhibition by DNP-modulator conjugate (in words) (carbonic anhydrase [1]; mixtures 2 and 7, antibody to DNP present): increased inhibition of the carbonic anhydrase reaction by the DNP-modulator conjugate

Compound: NS(=O)(=O)c1nnc(NC(=O)CCCCCNc2ccc([N+](=O)[O-])cc2[N+](=O)[O-])s1 [DNP-Modulator Conjugate, 6-(2,4-Dinitroanilino)-N-(5-sulfonamide-1,3,4-thiadiazo-2-yl) caproamide]
Rate of Hydrolysis (carbonic anhydrase [1]; DNP-modulator conjugate 0.278 μM with antibody to DNP 100 .infin.l/ml, mixture 2): 0.108 Increase in Absorbance per min at 348 nm
Rate of Hydrolysis (carbonic anhydrase [1]; DNP-modulator conjugate 0.278 μM, N-DNP-6-aminocaproate 1.8 μM, antibody to DNP 100 .infin.l/ml, mixture 7): 0.098 Increase in Absorbance per min at 348 nm
Rate of Hydrolysis (carbonic anhydrase [1]; DNP-modulator conjugate 0.278 μM, no antibody, mixture 4): 0.074 Increase in Absorbance per min at 348 nm
effect on the carbonic anhydrase reaction (in words) (carbonic anhydrase [1]): inhibited the carbonic anhydrase reaction
effect of antibody to DNP on inhibition (in words) (carbonic anhydrase [1]): degree of inhibition being decreased by the presence of antibody to DNP

Compound: C[N+](C)(C)c1ccc(N)cc1 [p-aminophenyl trimethylammonium ion]
inhibition of acetylcholinesterase (in words) (acetylcholinesterase): inhibited

Compound: CSCC[C@H](N)C(=O)O [L-methionine]
allosteric effector: inhibitory (-) or stimulatory (+) (homoserine dehydrogenase [2]): +

Compound: CC(=O)N[C@H]1[C@H]([C@H](O)[C@H](O)CO)OC(OP(=O)(O)OC[C@H]2O[C@@H](n3ccc(N)nc3=O)[C@H](O)[C@@H]2O)(C(=O)O)C[C@@H]1O (stereo partly shown) [cytosine monophosphate (CMP)-N-acetyl-neuraminic acid]
allosteric effector: inhibitory (-) or stimulatory (+) [3]: -

inhibition of carbonic anhydrase (in words) (carbonic anhydrase [4]; Table 1): inhibited the enzyme carbonic anhydrase
Hydrolysis Rate (carbonic anhydrase [4]; acetazolamide 0.144 μM with avidin 0.105 units/ml): 0.089 ΔOD348 /min/ml
Hydrolysis Rate (carbonic anhydrase [4]; acetazolamide 0.144 μM, no avidin): 0.088 ΔOD348 /min/ml
Hydrolysis Rate (carbonic anhydrase [4]; acetazolamide 0.288 μM, no avidin): 0.047 ΔOD348 /min/ml
Compound: CC(=O)Nc1nnc(S(N)(=O)=O)s1 [Acetazolamide, 2-Acetylamino-1,3,4-thiadiazole-5-sulfonamide]
effect on the carbonic anhydrase reaction (in words) (carbonic anhydrase [1]): inhibited the carbonic anhydrase reaction
Rate of Hydrolysis (carbonic anhydrase [1]; acetazolamide 0.216 μM with antibody to DNP 100 .infin.l/ml, mixture 3): 0.091 Increase in Absorbance per min at 348 nm
Rate of Hydrolysis (carbonic anhydrase [1]; acetazolamide 0.216 μM, no antibody, mixture 5): 0.088 Increase in Absorbance per min at 348 nm
effect of antibody to DNP on inhibition (in words) (carbonic anhydrase [1]): substantially unaffected by the presence of antibody to DNP

Compound: CN(C(=O)Oc1cccc([N+](C)(C)C)c1)c1ccc(N)cc1 [N-methyl-N-(p-aminophenyl) carbamate ester of m-(trimethylamino) phenol]
inhibition of acetylcholinesterase (in words) (acetylcholinesterase): inhibited

Compound: Clc1nc(Cl)c2[nH]c(Cl)nc2n1 [2,6,8-trichloropurine, 2,6,8-Trichloropurine]
Ki (uricase): ~1000 nM

Compound: C[C@@H](O)[C@H](N)C(=O)O [L-threonine]
allosteric effector: inhibitory (-) or stimulatory (+) (homoserine dehydrogenase [5]): -
allosteric effector: inhibitory (-) or stimulatory (+) (threonine aspartokinase): -
allosteric effector: inhibitory (-) or stimulatory (+) (homoserine dehydrogenase [2]): -

Compound: NC(=O)C1=CN([C@@H]2O[C@H](COP(=O)(O)OP(=O)(O)OC[C@H]3O[C@@H](n4cnc5c(N)ncnc54)[C@H](O)[C@@H]3O)[C@@H](O)[C@H]2O)C=CC1 [reduced NAD]
allosteric effector: inhibitory (-) or stimulatory (+) (glutamate dehydrogenase): -

Compound: O=C(O)CC(O)(CC(=O)O)C(=O)O [citrate]
allosteric effector: inhibitory (-) or stimulatory (+) [6]: +

Compound: Nc1nc2c(ncn2[C@@H]2O[C@H](COP(=O)(O)OP(=O)(O)OP(=O)(O)O)[C@@H](O)[C@H]2O)c(=O)[nH]1 [GTP, guanosine triphosphate]
allosteric effector: inhibitory (-) or stimulatory (+) (glutamate dehydrogenase): -

Compound: Nc1ncnc2c1ncn2[C@@H]1O[C@H](COP(=O)(O)OP(=O)(O)O)[C@@H](O)[C@H]1O [ADP, addenosine diphosphate]
allosteric effector: inhibitory (-) or stimulatory (+) (glutamate dehydrogenase): +
allosteric effector: inhibitory (-) or stimulatory (+) (L-threonine deaminase): +

Compound: Nc1ncnc2c1ncn2[C@@H]1O[C@H](COP(=O)(O)O)[C@@H](O)[C@H]1O [5'-AMP]
allosteric effector: inhibitory (-) or stimulatory (+) [7]: -
allosteric effector: inhibitory (-) or stimulatory (+) [8]: +
allosteric effector: inhibitory (-) or stimulatory (+) (phosphorylase b): +

Compound: N[C@@H](Cc1cc(I)c(Oc2cc(I)c(O)c(I)c2)c(I)c1)C(=O)O [thyroxine]
allosteric effector: inhibitory (-) or stimulatory (+) (glutamate dehydrogenase): -

Compound: CC(C)C[C@H](N)C(=O)O [leucine]
allosteric effector: inhibitory (-) or stimulatory (+) (glutamate dehydrogenase): +

Compound: C[N+](C)(C)c1ccccc1 [phenyl trimethylammonium ion]
Ki (acetylcholinesterase; approximation, competitive inhibitor, read-out: inhibitor constant (Ki)): ~1000 nM

Compound: Cc1cn([C@H]2C[C@H](O)[C@@H](COP(=O)(O)OP(=O)(O)OP(=O)(O)O)O2)c(=O)[nH]c1=O [dTTP, deoxythymidine triphosphate]
allosteric effector: inhibitory (-) or stimulatory (+) [9]: -
allosteric effector: inhibitory (-) or stimulatory (+) (deoxythymidine kinase): -

Compound: Nc1ccn([C@@H]2O[C@H](COP(=O)(O)OP(=O)(O)OP(=O)(O)O)[C@@H](O)[C@H]2O)c(=O)n1 [CTP, cytosine triphosphate]
allosteric effector: inhibitory (-) or stimulatory (+) [10]: -

Compound: Nc1ncnc2c1ncn2[C@@H]1O[C@H](COP(=O)(O)OP(=O)(O)OP(=O)(O)O)[C@@H](O)[C@H]1O [ATP, adenosine triphosphate]
allosteric effector: inhibitory (-) or stimulatory (+) (glutamate dehydrogenase): -
allosteric effector: inhibitory (-) or stimulatory (+) (phosphofructokinase): -
allosteric effector: inhibitory (-) or stimulatory (+) (phosphorylase b): -
allosteric effector: inhibitory (-) or stimulatory (+) [10]: +

Compound: CC(=O)N[C@H]1[C@@H](OP(=O)(O)OP(=O)(O)OC[C@H]2O[C@@H](n3ccc(=O)[nH]c3=O)[C@H](O)[C@@H]2O)O[C@H](CO)[C@@H](O)[C@@H]1O [uridine diphosphate (UDP)-N-acetyl-glucosamine]
allosteric effector: inhibitory (-) or stimulatory (+) [11]: -

Compound: CC[C@H](C)[C@H](N)C(=O)O [L-isoleucine]
allosteric effector: inhibitory (-) or stimulatory (+) [12]: -
allosteric effector: inhibitory (-) or stimulatory (+) (homoserine dehydrogenase [2]): +

effect of avidin on inhibition by acetazolamide (in words) (carbonic anhydrase [4]; Table 1): no significant effect on such inhibition
Hydrolysis Rate (carbonic anhydrase [4]; avidin 0.105 units/ml, acetazolamide 0.000 μM): 0.106 ΔOD348 /min/ml
Compound: Avidin: Lyophilized avidin (Sigma Chemical Co., St. Louis, Mo.)
relation of rate of enzymatic hydrolysis to avidin (in words) (carbonic anhydrase [13]; constant level of biotin-modulator conjugate, mixtures 2-9): directly related to the amount of avidin present

Compound: CC(C)[C@H](N)C(=O)O [L-valine]
allosteric effector: inhibitory (-) or stimulatory (+) [12]: +
allosteric effector: inhibitory (-) or stimulatory (+) (acetolactate synthetase): +

Compound: Nc1ccn([C@H]2C[C@H](O)[C@@H](COP(=O)(O)OP(=O)(O)OP(=O)(O)O)O2)c(=O)n1 [dCTP, deoxycytosine triphosphate]
allosteric effector: inhibitory (-) or stimulatory (+) [9]: +

Compound: O=C(O)CCCC[C@@H]1SC[C@@H]2NC(=O)N[C@@H]21 [biotin]
relation of rate of hydrolysis to biotin (in words) (carbonic anhydrase [13]; mixtures 8, 10 and 11): inversely related to the amount present
